# Reference: US20140228287A1, “1-[(3-CYANO-PYRIDIN-2-YL)METHYL]-3-METHYL-7-(2-BUTYN-1-YL)-8-[3-(R)-AMINO-PIPERIDIN-1-YL]-AXANTHINE FOR THE TREATMENT OF A METABOLIC DISORDER OF A PREDOMINANTLY CARNIVOROUS NON-HUMAN ANIMAL” (BOEHRINGER INGELHEIM VETMEDICA GMBH, priority 2010, published 2014)
# Where a name gives a salt, the structure may show the parent alone.
# Tests used:
# plasma DPP-4 = target: T1, plasma DPP-4 (Rattus norvegicus, UniProt P14740); test: Inhibition of DPP-4 in rat plasma (in vitro); assay type: biochemical; details: wistar rat plasma
# T1 construct: from tissue
# T1 sequence (P14740 37-767 limits assumed): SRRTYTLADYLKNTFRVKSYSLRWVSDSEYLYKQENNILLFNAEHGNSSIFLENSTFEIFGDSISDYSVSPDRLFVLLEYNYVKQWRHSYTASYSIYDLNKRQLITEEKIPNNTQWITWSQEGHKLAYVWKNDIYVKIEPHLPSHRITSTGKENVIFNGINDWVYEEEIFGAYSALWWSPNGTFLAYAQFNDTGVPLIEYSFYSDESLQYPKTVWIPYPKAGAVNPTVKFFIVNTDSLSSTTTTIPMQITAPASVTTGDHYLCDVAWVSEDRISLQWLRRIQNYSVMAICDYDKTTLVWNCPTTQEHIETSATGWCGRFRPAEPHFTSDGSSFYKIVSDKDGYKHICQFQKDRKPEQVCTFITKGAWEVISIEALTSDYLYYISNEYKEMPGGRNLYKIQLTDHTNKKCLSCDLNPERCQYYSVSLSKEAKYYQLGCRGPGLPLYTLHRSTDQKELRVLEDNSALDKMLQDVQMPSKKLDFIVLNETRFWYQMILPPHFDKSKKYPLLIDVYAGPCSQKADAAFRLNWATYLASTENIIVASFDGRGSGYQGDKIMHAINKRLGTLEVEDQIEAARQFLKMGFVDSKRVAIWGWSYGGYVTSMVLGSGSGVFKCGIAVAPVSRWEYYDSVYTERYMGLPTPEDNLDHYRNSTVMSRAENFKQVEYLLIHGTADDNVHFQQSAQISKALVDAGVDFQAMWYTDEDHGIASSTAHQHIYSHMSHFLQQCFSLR
# Experimental: Plasma obtained from 3 different cats and one Wistar rat as control were each incubated with a range of concentrations of 1-[(3-cyano-pyridin-2-yl)methyl]-3-methyl-7-(2-butyn-1-yl)-8-[3-(R)-amino-piperidin-1-yl]-xanthine monohydrochloride. Plasma DPP-4 activity was measured in the following way (which is also described in Eckhard et al. (2007), J. Med. Chem., Vol. 50, 6450-6453, Supporting Information).
# Rat and cat plasma was used for ex vivo measurement of DDP-4 activity. Blood was collected in EDTA tubes and subjected to centrifugation. The resultant supernatant was aliquoted and frozen. […]
# The assay itself was initiated by mixing 50 μl of diluted plasma with 50 μl of diluted substrate (Ala-Pro-AFC) and performed in black flat-bottom 96-well plates. The plates were then incubated at room temperature for 1 h and fluorescence was measured at excitation/emission wavelengths of 405/535 nm. Data analysis was performed by calculating the fluorescence in the presence of the test compound compared to the fluorescence of the vehicle control after subtracting the background fluorescence.
# From a plot of concentration against activity (equivalent to fluorescence units) kinetic data could be collected, e.g. the half-maximal inhibitory concentration (IC50) of the tested compound in the different animals, which data are given in the following Table 2.
# diabetic ZDF rats = test: Delayed OGTT in diabetic ZDF rats; assay type: in vivo, rat; details: 1 mg/kg 16 hours before the test
# Experimental: A delayed oral glucose tolerance test (OGTT) was applied to diabetic db/db mice and diabetic ZDF rats, as describes in the following.
# Male Zucker Diabetic Fatty (ZDF) rats (ZDF/Crl-Leprfa) were obtained from Charles River (USA). Animals were fed ad libitum with a special pelleted diet (Diet No. 2437 [containing 4.5% sucrose], Provimi Kliba, Switzerland) and had free access to water. Animals were housed in groups with a 12 h/12 h light/dark cycle (lights out between 6 p.m. and 6 a.m.). The rats were used for the experiments at 12 weeks of age.
# The day before the OGTT, a blood sample from db/db mice or ZDF rats fasted for 2 hours was obtained by cutting the tip of the tail without anaesthesia and the animals were randomized for glucose (n=7 per group). The animals were fed again for 2 hours and then orally administered with either vehicle or 1-[(3-cyano-pyridin-2-yl)methyl]-3-methyl-7-(2-butyn-1-yl)-8-[3-(R)-amino-piperidin-1-yl]-xanthine monohydrochloride at doses between 0.3 and 3 mg/kg bw. A basal blood sample (pre-load) was obtained the next morning after overnight fasting for 16 hours by cutting the tip of the tail without anaesthesia. […] Additional blood samples were taken from the tip of the tail 30 min, 60 min, 90 min, 120 min, and 180 min after the glucose load, and blood glucose was measured. […]
# [1] = Single dose study (1.0/5.0/10.0 mg/kg) in cats: adverse events; assay type: in vivo, cat; details: single oral 1, 5, 10 mg/kg
# Experimental: The aim of this study was to investigate the PK/PD behaviour of 1-[(3-cyano-pyridin-2-yl)methyl]-3-methyl-7-(2-butyn-1-yl)-8-[3-(R)-amino-piperidin-1-yl]-xanthine in the cat following a single oral administration of 0, 1, 5 and 10 mg/kg body weight (dosages were based on the free base: 1 mg 1-[(3-cyano-pyridin-2-yl)methyl]-3-methyl-7-(2-butyn-1-yl)-8-[3-(R)-amino-piperidin-1-yl]-xanthine monohydrochloride corresponds to 0.923 mg 1-[(3-cyano-pyridin-2-yl)methyl]-3-methyl-7-(2-butyn-1-yl)-8-[3-(R)-amino-piperidin-1-yl]-xanthine free base).
# Twelve clinically healthy male adult domestic short hair cats with a body weight range of 3.5-4.7 kg were used in this study. All animals were treated orally once via a stomach tube. Blood samples for pharmacokinetic and pharmacodynamic (DPP IV activity) investigations were drawn at 0 h (i.e. prior to treatment), 30 min as well as 1, 2, 4, 8, 8.5, 9, 12, 24, 36, 48, 72, 84 and 96 h after treatment. Blood samples for pharmacodynamic (glucagon-like peptide 1 concentrations) investigations were drawn at −16 (i.e. prior to feeding), −15.5, −15 h as well as at 8 h (i.e. prior to feeding), 8.5 and 9 h after treatment.
# GLP-1 = test: OGTT in normal cats after 9 mg per cat: GLP-1 concentrations; assay type: in vivo; details: for GLP-1 concentration: 9 mg/cat oral, OGTT beginning 1 h after
# Experimental: Cats were fasted overnight and then lightly tranquilized with tiletamine/zolazepam (2 mg per cat intravenously (Fort Dodge Animal Health, Ft. Dodge, Iowa, USA). Glucose was administered via gastric tube (2 g/kg body weight; 80% w/v) after a baseline blood sample had been obtained. […]
# Glucose measurements were performed using a colorimetric glucose oxidase method (DCL, Oxford, Conn., USA). Plasma insulin was measured as described in Hoenig et al. (1989), J. Endocrinol., vol. 121, p. 249-251. The concentrations of active GLP-1 were measured with an ELISA kit from Linco (St. Charles, Mo., USA). All samples were tested in duplicate. […] The interassay coefficient of variation (CV) was 7.6%, and the intra-assay CV was 12.1%.
# An OGTT like in Example 11 was performed in […] beginning 1 h after oral administration of 9 mg 1-[(3-cyano-pyridin-2-yl)methyl]-3-methyl-7-(2-butyn-1-yl)-8-[3-(R)-amino-piperidin-1-yl]-xanthine monohydrochloride or placebo (2 groups with 6 animals each; 3 male and 3 females per group).
# DPP IV = target: T2, DPP IV (Felis catus, UniProt Q9N2I7); test: PK/PD studies in cats, summary; assay type: in vivo, cat
# T2 construct: Blood samples for the determination of this compound and DPP IV activity were collected; from tissue; host or cells: plasma of domestic short hair / purpose-bred cats dosed orally
# T2 sequence (Q9N2I7 38-765 limits assumed): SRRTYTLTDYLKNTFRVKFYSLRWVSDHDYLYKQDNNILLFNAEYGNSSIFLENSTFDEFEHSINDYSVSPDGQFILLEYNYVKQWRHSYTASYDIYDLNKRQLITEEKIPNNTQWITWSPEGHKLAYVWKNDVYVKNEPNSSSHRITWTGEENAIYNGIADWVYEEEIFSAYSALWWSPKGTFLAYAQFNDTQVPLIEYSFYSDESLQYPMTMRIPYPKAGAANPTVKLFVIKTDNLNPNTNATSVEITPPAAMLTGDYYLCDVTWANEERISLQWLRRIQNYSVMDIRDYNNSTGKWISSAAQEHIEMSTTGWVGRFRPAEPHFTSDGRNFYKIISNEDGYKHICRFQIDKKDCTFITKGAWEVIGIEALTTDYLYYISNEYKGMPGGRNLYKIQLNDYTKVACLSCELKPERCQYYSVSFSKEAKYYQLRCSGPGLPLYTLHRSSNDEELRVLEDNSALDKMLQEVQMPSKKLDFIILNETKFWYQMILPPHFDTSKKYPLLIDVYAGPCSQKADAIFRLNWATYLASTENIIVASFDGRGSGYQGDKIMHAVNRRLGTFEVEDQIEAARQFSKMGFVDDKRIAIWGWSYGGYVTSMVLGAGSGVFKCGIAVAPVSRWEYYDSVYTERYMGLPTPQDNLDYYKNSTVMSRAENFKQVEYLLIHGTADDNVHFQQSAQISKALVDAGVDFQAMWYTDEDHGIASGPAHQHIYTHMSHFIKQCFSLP
# Experimental: PK/PD studies to measure the effect of different doses of 1-[(3-cyano-pyridin-2-yl)methyl]-3-methyl-7-(2-butyn-1-yl)-8-[3-(R)-amino-piperidin-1-yl]-xanthine CL on DPP IV activity, are presented in the experimental part of this application. […] Larger degrees of DPP IV inhibition, e.g. more than 80% in 24 h can be reached by increased doses. The duration of DPP IV inhibition can be prolonged with higher dosages.
structure (smiles),measurement,setting,value
CC#CCn1c(N2CCC[C@@H](N)C2)nc2c1c(=O)n(Cc1ncccc1C#N)c(=O)n2C [1-[(3-cyano-pyridin-2-yl)methyl]-3-methyl-7-(2-butyn-1-yl)-8-[3-(R)-amino-piperidin-1-yl]-xanthine monohydrochloride],IC50,plasma DPP-4,1.95 nM
same,hillslope,plasma DPP-4,−0.8462
same,suppression of glucose excursion in OGTT,diabetic ZDF rats,35%
same,adverse events,[1],No specific adverse events were observed
same,GLP-1 increase compared to Placebo,"GLP-1; 9 mg per cat oral, OGTT in normal cats",significantly higher compared to Placebo
same,GLP-1 concentration,GLP-1; 60 min after drug administration,3.70 pmol/L
same,GLP-1 concentration,GLP-1; 65 min after drug administration,3.92 pmol/L
same,GLP-1 concentration,GLP-1; 70 min after drug administration,4.54 pmol/L
same,GLP-1 concentration,GLP-1; 75 min after drug administration,7.28 pmol/L
same,GLP-1 concentration,GLP-1; 90 min after drug administration,16.31 pmol/L
same,GLP-1 concentration,GLP-1; 120 min after drug administration,26.93 pmol/L
same,GLP-1 concentration,GLP-1; 180 min after drug administration,23.25 pmol/L
same,GLP-1 concentration,GLP-1; 240 min after drug administration,14.45 pmol/L
same,GLP-1 concentration,GLP-1; 300 min after drug administration,9.60 pmol/L
same,GLP-1 concentration,GLP-1; 360 min after drug administration,6.04 pmol/L
same,doses leading to a significant DPP IV inhibition,DPP IV,more than 0.1 mg/kg
same,DPP IV inhibition in 24 h,"DPP IV; achieved with 1 to 3 mg/kg (˜3 to 9 mg per cat, or 4 to 30 nmol/l in cat plasma)",more than 70%
